Each structure is given as a SMILES string. *1 amine or outer side, *2 acyl side, *3 side chain or, on linkers, in order; H or OH if unused. Where a SMILES comes first, the peptide text is derived from it. [ ]: non-standard residue; d: D form. Trp(4-Cl)(βS-Me) = C[C@@H](c1c[nH]c2cccc(Cl)c12)[C@H](N)C(=O)O; Trp(βS-Me,4-F) = C[C@@H](c1c[nH]c2cccc(F)c12)[C@H](N)C(=O)O; Bip(4'-COOH) = N[C@@H](Cc1ccc(-c2ccc(C(=O)O)cc2)cc1)C(=O)O; Phe(3-CH2NH2) = O=C([C@H](Cc1cccc(CN[*:3])c1)N[*:1])[*:2]; Phe(4-COOH) = N[C@@H](Cc1ccc(C(=O)O)cc1)C(=O)O; Phe(4-CH2NH2) = NCc1ccc(C[C@H](N)C(=O)O)cc1; Phe(3-NH2) = Nc1cccc(C[C@H](N)C(=O)O)c1; Phe(4-NH2) = Nc1ccc(C[C@H](N)C(=O)O)cc1; Pro(4R-NH2) = N[C@H]1CN[C@H](C(=O)O)C1; hTyr = N[C@@H](CCc1ccc(O)cc1)C(=O)O; 4Pal = N[C@@H](Cc1ccncc1)C(=O)O; dDab = NCC[C@@H](N)C(=O)O; Orn = NCCC[C@H](N)C(=O)O; dNMeA = CN[C@H](C)C(=O)O; Dap = NC[C@H](N)C(=O)O

These results are taken from patent US20230406885A1, “CYCLIC PEPTIDES FOR TRAPPING INTERLEUKIN-1 BETA” (MERCK SHARP & DOHME LLC, priority 2022, published 2023).

T1 sequence (P01584 117-269): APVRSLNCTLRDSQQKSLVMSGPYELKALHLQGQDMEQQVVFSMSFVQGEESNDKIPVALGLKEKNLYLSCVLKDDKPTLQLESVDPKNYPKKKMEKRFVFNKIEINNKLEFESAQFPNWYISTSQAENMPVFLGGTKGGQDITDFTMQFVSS

The experiment addresses T1, Recombinant human IL-1β (Homo sapiens, UniProt P01584).
T1 construct: purchased BioLegend 579404
The experiment can be described thus: IL-6 assay in MRC5 cells: inhibition of IL-1β induced IL-6 secretion (AlphaLISA). Conditions: inhibition of IL-1β induced IL-6 secretion in MRC5 cells; IL-1β pre-incubated 1 hour with compound; read-out: MRC5 IC50. It counts as cell-based. The method in brief:
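IL-1β at 2×EC80 in seeding medium (EMEM, 0.025% BSA) preincubated 1 h at ambient temperature with compound, then 3000 MRC5 cells/well added and incubated overnight at 37 °C, 5% CO2. IL-6 in conditioned medium quantified by AlphaLISA; IC50 from 4-parameter logistic fit.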
The term IC50 denotes the midpoint of a concentration-inhibition curve. On to `C[C@@H]1C(=O)NCC(=O)N[C@@H](Cc2ccc(-c3ccc(C(=O)O)cc3)cc2)C(=O)N[C@@H](Cc2cccc(CN)c2)C(=O)N[C@@H](CO)C(=O)N[C@H](C)C(=O)N[C@@H](CCc2ccc(O)cc2)C(=O)N[C@@H](Cc2ccc(-c3ccc(C(=O)O)cc3)cc2)C(=O)N[C@@H](Cc2c[nH]c3ccccc23)C(=O)N[C@@H](Cc2ccc(C(=O)O)cc2)C(=O)NCC(=O)N2C[C@H](N)C[C@H]2C(=O)N[C@@H]([C@@H](C)c2c[nH]c3cccc(Cl)c23)C(=O)N[C@@H](CC(=O)O)C(=O)N1C` [Example 48] (cyclo([Bip(4'-COOH)]W[Phe(4-COOH)]G[Pro(4R-NH2)][Trp(4-Cl)(βS-Me)]D[dNMeA]G[Bip(4'-COOH)][Phe(3-CH2NH2)]S[dA][hTyr])), for which the IC50 was determined as 0.041 nM. As for `C[C@@H]1C(=O)NCC(=O)N[C@@H](Cc2ccc(-c3ccc(C(=O)O)cc3)cc2)C(=O)N[C@@H](CCCN)C(=O)N[C@@H](CO)C(=O)N[C@H](C)C(=O)N[C@@H](CCc2ccc(O)cc2)C(=O)N[C@@H](Cc2ccc(-c3ccc(C(=O)O)cc3)cc2)C(=O)N[C@@H](Cc2c[nH]c3ccccc23)C(=O)N[C@@H](Cc2ccc(C(=O)O)cc2)C(=O)NCC(=O)N2C[C@H](N)C[C@H]2C(=O)N[C@@H]([C@@H](C)c2c[nH]c3cccc(Cl)c23)C(=O)N[C@@H](CC(=O)O)C(=O)N1C` [Example 49] (cyclo([Bip(4'-COOH)]W[Phe(4-COOH)]G[Pro(4R-NH2)][Trp(4-Cl)(βS-Me)]D[dNMeA]G[Bip(4'-COOH)][Orn]S[dA][hTyr])), the 50% inhibitory concentration (IC50) came to 0.402 nM. The result for `C[C@@H]1C(=O)NCC(=O)N[C@@H](Cc2ccc(-c3ccc(C(=O)O)cc3)cc2)C(=O)N[C@@H](Cc2cccc(N)c2)C(=O)N[C@@H](CO)C(=O)N[C@H](C)C(=O)N[C@@H](CCc2ccc(O)cc2)C(=O)N[C@@H](Cc2ccc(-c3ccc(C(=O)O)cc3)cc2)C(=O)N[C@@H](Cc2c[nH]c3ccccc23)C(=O)N[C@@H](Cc2ccc(C(=O)O)cc2)C(=O)NCC(=O)N2C[C@H](N)C[C@H]2C(=O)N[C@@H]([C@@H](C)c2c[nH]c3cccc(Cl)c23)C(=O)N[C@@H](CC(=O)O)C(=O)N1C` [Example 50] (cyclo([Bip(4'-COOH)]W[Phe(4-COOH)]G[Pro(4R-NH2)][Trp(4-Cl)(βS-Me)]D[dNMeA]G[Bip(4'-COOH)][Phe(3-NH2)]S[dA][hTyr])) reads 0.52 nM; that for `C[C@@H]1C(=O)NCC(=O)N[C@@H](Cc2ccc(-c3ccc(C(=O)O)cc3)cc2)C(=O)N[C@@H](Cc2ccc(CN)cc2)C(=O)N[C@@H](CO)C(=O)N[C@H](C)C(=O)N[C@@H](CCc2ccc(O)cc2)C(=O)N[C@@H](Cc2ccc(-c3ccc(C(=O)O)cc3)cc2)C(=O)N[C@@H](Cc2c[nH]c3ccccc23)C(=O)N[C@@H](Cc2ccc(C(=O)O)cc2)C(=O)NCC(=O)N2C[C@H](N)C[C@H]2C(=O)N[C@@H]([C@@H](C)c2c[nH]c3cccc(Cl)c23)C(=O)N[C@@H](CC(=O)O)C(=O)N1C` [Example 51] (cyclo([Bip(4'-COOH)]W[Phe(4-COOH)]G[Pro(4R-NH2)][Trp(4-Cl)(βS-Me)]D[dNMeA]G[Bip(4'-COOH)][Phe(4-CH2NH2)]S[dA][hTyr])), 0.32 nM. The figure for `C[C@@H]1C(=O)NCC(=O)N[C@@H](Cc2ccc(-c3ccc(C(=O)O)cc3)cc2)C(=O)N[C@@H](Cc2ccc(N)cc2)C(=O)N[C@@H](CO)C(=O)N[C@H](C)C(=O)N[C@@H](CCc2ccc(O)cc2)C(=O)N[C@@H](Cc2ccc(-c3ccc(C(=O)O)cc3)cc2)C(=O)N[C@@H](Cc2c[nH]c3ccccc23)C(=O)N[C@@H](Cc2ccc(C(=O)O)cc2)C(=O)NCC(=O)N2C[C@H](N)C[C@H]2C(=O)N[C@@H]([C@@H](C)c2c[nH]c3cccc(Cl)c23)C(=O)N[C@@H](CC(=O)O)C(=O)N1C` [Example 52] (cyclo([Bip(4'-COOH)]W[Phe(4-COOH)]G[Pro(4R-NH2)][Trp(4-Cl)(βS-Me)]D[dNMeA]G[Bip(4'-COOH)][Phe(4-NH2)]S[dA][hTyr])) is 0.454 nM; for `C[C@@H]1C(=O)NCC(=O)N[C@@H](Cc2ccc(-c3ccc(C(=O)O)cc3)cc2)C(=O)N[C@@H](Cc2c[nH]c3ccccc23)C(=O)N[C@@H](CN)C(=O)N[C@H](C)C(=O)N[C@@H](CCc2ccc(O)cc2)C(=O)N[C@@H](Cc2ccc(-c3ccc(C(=O)O)cc3)cc2)C(=O)N[C@@H](Cc2c[nH]c3ccccc23)C(=O)N[C@@H](Cc2ccc(C(=O)O)cc2)C(=O)NCC(=O)N2C[C@H](N)C[C@H]2C(=O)N[C@@H]([C@@H](C)c2c[nH]c3cccc(Cl)c23)C(=O)N[C@@H](CC(=O)O)C(=O)N1C` [Example 53] (cyclo([Bip(4'-COOH)]W[Phe(4-COOH)]G[Pro(4R-NH2)][Trp(4-Cl)(βS-Me)]D[dNMeA]G[Bip(4'-COOH)]W[Dap][dA][hTyr])) it is 0.0418 nM; for `C[C@@H]1C(=O)NCC(=O)N[C@@H](Cc2ccc(-c3ccc(C(=O)O)cc3)cc2)C(=O)N[C@@H](Cc2c[nH]c3ccccc23)C(=O)NCC(=O)N[C@H](CCN)C(=O)N[C@@H](CCc2ccc(O)cc2)C(=O)N[C@@H](Cc2ccc(-c3ccc(C(=O)O)cc3)cc2)C(=O)N[C@@H](Cc2c[nH]c3ccccc23)C(=O)N[C@@H](Cc2ccc(C(=O)O)cc2)C(=O)NCC(=O)N2C[C@H](N)C[C@H]2C(=O)N[C@@H]([C@@H](C)c2c[nH]c3cccc(Cl)c23)C(=O)N[C@@H](CC(=O)O)C(=O)N1C` [Example 54] (cyclo([Bip(4'-COOH)]W[Phe(4-COOH)]G[Pro(4R-NH2)][Trp(4-Cl)(βS-Me)]D[dNMeA]G[Bip(4'-COOH)]WG[dDab][hTyr])) it is 0.0692 nM. The figure for `C[C@@H]1C(=O)NCC(=O)N[C@@H](Cc2ccc(-c3ccc(C(=O)O)cc3)cc2)C(=O)N[C@@H](Cc2c[nH]c3ccccc23)C(=O)NCC(=O)N[C@H](CCN)C(=O)N[C@@H](CCc2ccc(O)cc2)C(=O)N[C@@H](Cc2ccc(-c3ccc(C(=O)O)cc3)cc2)C(=O)N[C@@H](Cc2c[nH]c3ccccc23)C(=O)N[C@@H](Cc2ccc(C(=O)O)cc2)C(=O)NCC(=O)N2C[C@H](N)C[C@H]2C(=O)N[C@@H]([C@@H](C)c2c[nH]c3cccc(Cl)c23)C(=O)N[C@@H](CCC(=O)O)C(=O)N1C` [Example 55] (cyclo([Bip(4'-COOH)]W[Phe(4-COOH)]G[Pro(4R-NH2)][Trp(4-Cl)(βS-Me)]E[dNMeA]G[Bip(4'-COOH)]WG[dDab][hTyr])) is 0.0493 nM.

Consider `C[C@@H]1C(=O)NCC(=O)N[C@@H](Cc2ccc(-c3ccc(C(=O)O)cc3)cc2)C(=O)N[C@@H](Cc2c[nH]c3ccccc23)C(=O)NCC(=O)N[C@H](CCN)C(=O)N[C@@H](CCc2ccc(O)cc2)C(=O)N[C@@H](Cc2ccc(-c3ccc(C(=O)O)cc3)cc2)C(=O)N[C@@H](Cc2c[nH]c3ccccc23)C(=O)N[C@@H](Cc2ccc(C(=O)O)cc2)C(=O)NCC(=O)N2C[C@H](N)C[C@H]2C(=O)N[C@@H]([C@@H](C)c2c[nH]c3cccc(Cl)c23)C(=O)N[C@@H](CC(N)=O)C(=O)N1C` [Example 56] (cyclo([Bip(4'-COOH)]W[Phe(4-COOH)]G[Pro(4R-NH2)][Trp(4-Cl)(βS-Me)]N[dNMeA]G[Bip(4'-COOH)]WG[dDab][hTyr])), for which the IC50 is 0.0207 nM. The result for `C[C@@H]1C(=O)NCC(=O)N[C@@H](Cc2ccc(-c3ccc(C(=O)O)cc3)cc2)C(=O)N[C@@H](Cc2c[nH]c3ccccc23)C(=O)NCC(=O)N[C@H](CCN)C(=O)N[C@@H](CCc2ccc(O)cc2)C(=O)N[C@@H](Cc2ccc(-c3ccc(C(=O)O)cc3)cc2)C(=O)N[C@@H](Cc2c[nH]c3ccccc23)C(=O)N[C@@H](Cc2ccc(C(=O)O)cc2)C(=O)NCC(=O)N2C[C@H](N)C[C@H]2C(=O)N[C@@H]([C@@H](C)c2c[nH]c3cccc(Cl)c23)C(=O)N[C@@H](CCC(N)=O)C(=O)N1C` [Example 57] (cyclo([Bip(4'-COOH)]W[Phe(4-COOH)]G[Pro(4R-NH2)][Trp(4-Cl)(βS-Me)]Q[dNMeA]G[Bip(4'-COOH)]WG[dDab][hTyr])) reads 0.0873 nM; that for `CC(C)C[C@@H]1NC(=O)[C@H](CCCCN)NC(=O)[C@H](Cc2ccc(-c3ccc(C(=O)O)cc3)cc2)NC(=O)CNC(=O)[C@@H](C)N(C)C(=O)[C@H](C)NC(=O)[C@H]([C@@H](C)c2c[nH]c3cccc(F)c23)NC(=O)[C@@H]2C[C@@H](N)CN2C(=O)CNC(=O)[C@H](Cc2ccc(C(=O)O)cc2)NC(=O)[C@H](Cc2c[nH]c3ccccc23)NC(=O)[C@H](Cc2ccc(-c3ccc(C(=O)O)cc3)cc2)NC(=O)[C@H](CCc2ccc(O)cc2)NC(=O)[C@@H](C)NC1=O` [Example 58] (cyclo([Bip(4'-COOH)]W[Phe(4-COOH)]G[Pro(4R-NH2)][Trp(βS-Me,4-F)]A[dNMeA]G[Bip(4'-COOH)]KL[dA][hTyr])), 0.247 nM. The figure for `CC(C)C[C@@H]1NC(=O)[C@H](Cc2ccncc2)NC(=O)[C@H](Cc2ccc(-c3ccc(C(=O)O)cc3)cc2)NC(=O)CNC(=O)[C@@H](C)N(C)C(=O)[C@H](CC(=O)O)NC(=O)[C@H]([C@@H](C)c2c[nH]c3cccc(F)c23)NC(=O)[C@@H]2C[C@@H](N)CN2C(=O)CNC(=O)[C@H](Cc2ccc(C(=O)O)cc2)NC(=O)[C@H](Cc2c[nH]c3ccccc23)NC(=O)[C@H](Cc2ccc(-c3ccc(C(=O)O)cc3)cc2)NC(=O)[C@H](CCc2ccc(O)cc2)NC(=O)[C@@H](C)NC1=O` [Example 59] (cyclo([Bip(4'-COOH)]W[Phe(4-COOH)]G[Pro(4R-NH2)][Trp(βS-Me,4-F)]D[dNMeA]G[Bip(4'-COOH)][4Pal]L[dA][hTyr])) is 0.0362 nM; for `CC(C)C[C@@H]1NC(=O)[C@H](Cc2ccccc2)NC(=O)[C@H](Cc2ccc(-c3ccc(C(=O)O)cc3)cc2)NC(=O)CNC(=O)[C@@H](C)N(C)C(=O)[C@H](CC(=O)O)NC(=O)[C@H]([C@@H](C)c2c[nH]c3cccc(F)c23)NC(=O)[C@@H]2C[C@@H](N)CN2C(=O)CNC(=O)[C@H](Cc2ccc(C(=O)O)cc2)NC(=O)[C@H](Cc2c[nH]c3ccccc23)NC(=O)[C@H](Cc2ccc(-c3ccc(C(=O)O)cc3)cc2)NC(=O)[C@H](CCc2ccc(O)cc2)NC(=O)[C@@H](C)NC1=O` [Example 60] (cyclo([Bip(4'-COOH)]W[Phe(4-COOH)]G[Pro(4R-NH2)][Trp(βS-Me,4-F)]D[dNMeA]G[Bip(4'-COOH)]FL[dA][hTyr])) it is 0.0689 nM.
